Experimental data as given in the NIST ThermoML archive (doi:10.1016/j.fluid.2018.05.004).

Settings: Crystal, Transpiration method

[CH]1C=CC=C1.[CH]1C=CC=C1.[Fe] [ferrocene]
Settings | vapor or sublimation pressure [kPa]
361.2 K | 0.172
363.2 K | 0.198
366.5 K | 0.244
368.2 K | 0.263
371.7 K | 0.332
374.4 K | 0.398
378.3 K | 0.494
385.7 K | 0.789
388.6 K | 0.907
392.1 K | 1.13
394 K | 1.23
401.8 K | 1.881
410.1 K | 2.869
417.3 K | 4.29
419.4 K | 4.338
429.4 K | 7.204
430.7 K | 7.571
434.6 K | 9.559
435.2 K | 9.195
